In patent publication US20200390767A1, “Formulations of 4-(7-Hydroxy-2-isopropyl-4-oxo-4H-quinazolin-3-yl)-benzonitrile” (NOVARTIS AG, priority 2019, published 2020):

Tested on: corneal sensitivity
Test: First in human study, esthesiometry assessment (Part 3)
Format: in vivo
Details: single eye drop; for anesthetic effect on the cornea: healthy subjects
Description: Part 3 was an esthesiometry assessment to evaluate the anesthetic properties of compound I. Part 3 of the study had four arms, with compound I, vehicle, tetracaine (0.5% ophthalmic solution, used as a positive control) and diclofenac sodium (0.1% ophthalmic solution, used as the active NSAID comparator). Ocular anesthetic was selected because of its established anesthetic effect; however it is not the standard of care due to its negative effect on wound healing. NSAID is the current standard of care for corneal pain after PRK with minimal anesthetic but significant pain control properties. Vehicle eye drops were used as a negative control to enable better determination of the potential anesthetic effect. Twelve healthy subjects, who met the eligibility criteria, were randomized to receive a single eye drop of 4 study treatments, each during 1 of 4 different study days (Days 1, 4, 7 and 10). Each subject was randomized to receive the study treatment according to one of the following four sequences: • Sequence 1: Anesthetic, NSAID, compound I 2.5%, Vehicle • Sequence 2: NSAID, Vehicle, Anesthetic, compound I 2.5% • Sequence 3: Vehicle, compound I 2.5%, NSAID, Anesthetic • Sequence 4: compound I 2.5%, Anesthetic, Vehicle, NSAID
The first-in-human study further evaluated potential anesthetic effect of topical ocular 2.5% compound I by esthesiometry testing, i.e. measurement of the filament length (cm) when the threshold of cornea touch is perceived.

Row | Compound | anesthetic effect on the cornea | duration of action of anesthetic effect
1 | O=C(O)Cc1ccccc1Nc1c(Cl)cccc1Cl [diclofenac 0.1%, diclofenac sodium] | no anesthetic effect | 
2 | CCCCNc1ccc(C(=O)OCCN(C)C)cc1 [tetracaine 0.5%, tetracaine] | had an anesthetic effect | approximately 10 minutes
